Experimental findings from EP1263429B1, “ANTIVIRAL THERAPY” (Universiteit Utrecht, priority 2000, dated 2001) are described below.

For assay [1], the system named is HIV-1Ba-L. The assay is described as follows: HIV-1 replication in acutely infected monocyte-derived macrophages (MDM), p24-core antigen ELISA. Format: cell-based. As to the method: PBMC are isolated from heparinized blood from HIV-1-, HIV-2-, and hepatitis B-seronegative donors and obtained on Ficoll-Hypaque density gradients. Cells are washed twice and monocytes are purified by countercurrent centrifugal elutriation. Cells are >98% monocytes by criteria of cell morphology on May-Grünwald-Giemsa-stained cytosmears and by nonspecific esterase staining using alpha-naphtylacetate (Sigma Chemical Co., St. Louis, MO) as substrate. Monocytes are cultured in suspension at a concentration of 2 x 10^6 cells/ml in Teflon flasks (Nalgene, Rochester, NY) in Iscove's modified Dulbeco's medium (IMDM) with 10% heat-inactivated human AB serum negative for anti-HIV antibodies, […], and […] (Sigma) for 7 days.
HIV-1 strain Ba-L is grown to high titer in MDM. The 50% tissue culture infectious dose (TCID50) of the virus stock is determined by endpoint dilution with serial fourfold dilutions in a 96-well microtiter plate on MDM. […] The TCID50 of the virus stock is determined by endpoint dilution with serial fourfold dilutions in a 96-well microtiter plate on PBMC.
MDM, and PBMC, were incubated with HIV at a multiplicity of infection of 0.02, and 0.006 or 0.001, respectively. […] The presence of HIV-1 in the inactivated supernatant is monitored by checking for the p24-core antigen using the enzyme-linked immunosorbent assay (ELISA) system of John Moore. […]
In general terms: An ELISA detects its analyte on a solid surface through an enzyme-linked reagent.

Assay [2] has as its system HIV-1Ba-L. The assay is described as follows: HIV-1 replication in acutely infected PBMC, p24-core antigen ELISA. As to conditions: for inhibition at 30 µM: 30 µM APHS. Format: cell-based. As to the method:
Peripheral blood mononuclear cell (PBMC) fractions are isolated from heparinised blood from HIV-1-, HIV-2- and hepatitis B- seronegative donors (Blood-bank, Utrecht, the Netherlands) by Ficoll-Isopaque gradient separation. Cells are washed twice, stimulated with 4 µg/ml phytohemagglutinin (PHA), and cultured in RPMI-1640 medium supplemented with 5 mM Hepes, 19 mM sodium bicarbonate, 10 µg/ml gentamicin, and 10% heat-inactivated fetal calf serum at a concentration of 1 x 10^6 cells/ml.
HIV-1 strain Ba-L is grown to high titer in MDM. The 50% tissue culture infectious dose (TCID50) of the virus stock is determined by endpoint dilution with serial fourfold dilutions in a 96-well microtiter plate on MDM. HIV-1 strain AT is grown to high titer in PHA-stimulated PBMC. The TCID50 of the virus stock is determined by endpoint dilution with serial fourfold dilutions in a 96-well microtiter plate on PBMC.
MDM, and PBMC, were incubated with HIV at a multiplicity of infection of 0.02, and 0.006 or 0.001, respectively. After two hours cells are washed to remove unbound virus and cultured for 4 to 7 days in different concentrations of the drug under investigation. On day 4, 5 and 7, 0.01 ml of supernatant is removed from the culture and virus in culture supernatant is inactivated in a final concentration of 0.05% empigen (Calbiochem-Novabiochem Co., La Jolla, CA). The presence of HIV-1 in the inactivated supernatant is monitored by checking for the p24-core antigen using the enzyme-linked immunosorbent assay (ELISA) system of John Moore.
(A, B) Peripheral blood mononuclear cells (PBMC) were isolated from heparinized blood from HIV-1-, HIV-2-, and hepatitis B-seronegative donors and obtained on Ficoll-Hypaque density gradients. Cells were washed twice, stimulated with 5 µg/ml phytohemagglutinin (PHA), and cultured m RPMI-1640 medium supplemented with 5 mM Hepes, 19 mM sodium bicarbonate, 10 µg/mL gentamicin, and 10% heat-inactivated fetal calf serum (PBMC culture medium) at a concentration of 2 x 10^6 cells/ml. After 3 days of incubation stimulated PBMC were recovered from the flasks and infected for 2 hours with HIV-1Ba-L at a multiplicity of infection of 0.01. Afterwards, HIV-infected and mock-infected PBMC were washed twice to remove unbound virus. (A) PBMC were cultured at a density of 6 x 10^5 cells/well with different concentrations of APHS and after 5 days of incubation samples of culture supernatant were collected. (B) PBMC were cultured in suspension at a concentration of 2 x 10^6 cells/ml in Teflon flasks in PBMC culture medium. After 5 days of incubation PBMC were recovered from Teflon flasks, washed twice to remove unbound virus and cultured at a density of 6 x 10^5 PBMC / well with different concentrations of APHS. After 2 days of incubation samples of culture supernatant were collected. p24-core antigen production was quantified using the enzyme-linked immunosorbent assay (ELISA) system of John Moore. […] (C, D) PBMC were isolated from heparinized blood from HIV-1-, HIV-2-, and hepatitis B-seronegative donors and obtained on Ficoll-Hypaque density gradients. PBMC were washed twice and monocytes were purified by countercurrent centrifugal elutriation. Cells were >98% monocytes by criteria of cell morphology on May-Grünwald-Giemsa-stained cytosmears and by nonspecific esterase staining using alpha-naphtylacetate as substrate. […]

Assay [3] relates to drug-resistant HIV strains. As to conditions: Table 2 strains.

For orientation: inhibition means the relative decrease from the control value, in per cent.

For `CCCCC#CCSc1ccccc1OC(C)=O` [APHS, o-(acetoxy-phenyl)hept-2-ynyl sulphide], in the assay with HIV-1Ba-L [1] (96 h), the “APHS concentrations that inhibit p24 production by acutely infected MDM” value is reported as “above 3 :M”. The inhibition at 30 µM is 88% in the assay on HIV-1Ba-L [1] (Human immunodeficiency virus 1, Macrophage, 30 µM APHS, Fig 2, MDM, multiplicity of infection 0.02); 100% in the assay on HIV-1Ba-L [2] (Human immunodeficiency virus 1, 120 h, Fig 6A, acute infection of PBMC, multiplicity of infection 0.01, 5 days); 100% in the assay with HIV-1Ba-L [2] (Human immunodeficiency virus 1, Fig 4, PBMC, read-out: inhibition of HIV-1BaL replication). The “APHS concentrations that inhibit HIV-1 production” value with HIV-1Ba-L [2] (Fig 4, PBMC infected with HIV-1AT or HIV-1BaL, 4 and 5 days of incubation) is reported as “above 1 µM”. Also, the “APHS concentrations that inhibit HIV-1Ba-L replication” value with HIV-1Ba-L [2] (Fig 6A, acute infection of PBMC, multiplicity of infection 0.01, 5 days of incubation) was “above 3 µM”. Further, the inhibition at 1 µM in the assay with HIV-1Ba-L [2] (Human immunodeficiency virus 1, PBMC, read-out: inhibition of HIV-1BaL production) was 50%. For the same compound, the “inhibitory activity against drug resistant strains versus activity against a sensitive strain” value in assay [3] is reported as “two- to four-fold higher”.
